According to US10750742B2, “Pesticidally active pyrazole derivatives” (SYNGENTA PARTICIPATIONS AG, priority 2015, dated 2020):
Where two headings read alike, the source gives them in different places.

How the values were obtained:
Type in all cases: in vivo
Diabrotica balteata = Diabrotica balteata (corn root worm), maize sprout test; details: 96 h, read-out: control (mortality and growth inhibition)
Experimental: Diabrotica balteata, (Corn Root Worm)
Maize sprouts, placed on an agar layer in 24-well microtiter plates were treated with aqueous test solutions prepared from 10′000 ppm DMSO stock solutions by spraying. After drying, the plates were infested with L2 larvae (6 to 10 per well). The samples were assessed for mortality and growth inhibition in comparison to untreated samples 4 days after infestation.

Tetranychus urticae = Tetranychus urticae (two-spotted spider mite), bean leaf disc test; details: foliar, 192 h, read-out: control (mortality on mixed population, mobile stages)
Experimental: Tetranychus urticae (Two-Spotted Spider Mite):
Bean leaf discs on agar in 24-well microtiter plates were sprayed with aqueous test solutions prepared from 10′000 ppm DMSO stock solutions. After drying the leaf discs were infested with a mite population of mixed ages. The samples were assessed for mortality on mixed population (mobile stages) 8 days after infestation.

Thrips tabaci = Thrips tabaci (onion thrips), sunflower leaf disc test; details: foliar, 144 h, read-out: control (mortality)
Experimental: Thrips tabaci (Onion Thrips):
Sunflower leaf discs were placed on agar in 24-well microtiter plates and sprayed with aqueous test solutions prepared from 10′000 ppm DMSO stock solutions. After drying the leaf discs were infested with a thrips population of mixed ages. The samples were assessed for mortality 6 days after infestation.

Plutella xylostella = Plutella xylostella (diamond back moth), artificial diet test; details: 120 h, read-out: control (mortality and growth inhibition)
Experimental: Plutella xylostella (Diamond Back Moth):
24-well microtiter plates with artificial diet were treated with aqueous test solutions prepared from 10′000 ppm DMSO stock solutions by pipetting. After drying, the plates were infested with L2 larvae (10 to 15 per well). The samples were assessed for mortality and growth inhibition in comparison to untreated samples 5 days after infestation.

Spodoptera littoralis = Spodoptera littoralis (Egyptian cotton leaf worm), cotton leaf disc spray test; details: foliar, 72 h, read-out: control (at least one of mortality, anti-feedant effect, growth inhibition); for percent control (mortality, anti-feedant effect or growth inhibition) at 200 ppm: application rate 200 ppm, L1 larvae, 3 days after infestation
Experimental: Spodoptera littoralis (Egyptian Cotton Leaf Worm)
Cotton leaf discs were placed on agar in 24-well microtiter plates and sprayed with aqueous test solutions prepared from 10′000 ppm DMSO stock solutions. After drying the leaf discs were infested with five L1 larvae. The samples were assessed for mortality, anti-feedant effect, and growth inhibition in comparison to untreated samples 3 days after infestation. Control of Spodoptera littoralis by a test sample is when at least one of mortality, anti-feedant effect, and growth inhibition is higher than the untreated sample.

Myzus persicae = Myzus persicae (green peach aphid), sucrose solution / Parafilm test; details: 120 h
Text: Myzus persicae (Green Peach Aphid):
Test compounds were applied by pipette into 24 well plates and mixed with Sucrose solution. Application rate: 12.5 ppm. The plates were closed with a stretched parafilm. A plastic stencil with 24 holes is placed onto the plate and infested pea seedlings were placed directly on the Parafilm. The infested plate is closed with a gel blotting paper and another plastic stencil and then turned upside down. 5 days after infestation the samples were checked on mortality.

Euschistus heros = Euschistus heros (neotropical brown stink bug), soybean leaf test; details: 120 h, read-out: effect in at least one of the two categories (mortality or growth inhibition); for percent effect (mortality or growth inhibition) at 200 ppm: application rate 200 ppm, N2 nymphs, 5 days after infestation
Experimental: Euschistus heros (Neotropical Brown Stink Bug):
Soybean leaves on agar in 24-well microtiter plates were sprayed with aqueous test solutions prepared from 10′000 ppm DMSO stock solutions. After drying the leaves were infested with N2 nymphs. The samples were assessed for mortality and growth inhibition in comparison to untreated samples 5 days after infestation.

[1] = application rate 200 ppm, L2 larvae, 4 days after infestation
[2] = application rate 200 ppm, 8 days after infestation
[3] = application rate 200 ppm, mixed ages, 6 days after infestation
[4] = application rate 200 ppm, L2 larvae, 5 days after infestation
[5] = test rate of 12 ppm, sucrose solution, 5 days after infestation, read-out: mortality

Cn1nc(OC(F)(F)C(F)C(F)(F)F)c(C(F)(F)F)c1-n1cc(-c2ccc(Cl)c(C(=O)N(/C(F)=C(\F)C(F)(F)F)C3(C#N)CC3)c2)cn1 (stereo not shown) [compound 7]
≥ 80%: mortality at 200 ppm (Diabrotica balteata; [1]) | mortality at 200 ppm (Tetranychus urticae; [2]) | mortality at 200 ppm (Thrips tabaci; [3]) | mortality at 200 ppm (Plutella xylostella; [4]) | percent control (mortality, anti-feedant effect or growth inhibition) at 200 ppm (Spodoptera littoralis)

CCNC(=O)c1cc(-c2cnn(-c3c(C(F)(F)F)c(OC(F)(F)C(F)C(F)(F)F)nn3C)c2)ccc1Cl (stereo not shown) [compound 9]
≥ 80%: mortality at 200 ppm (Diabrotica balteata; [1]) | mortality at 12 ppm (Myzus persicae; [5]) | mortality at 200 ppm (Tetranychus urticae; [2]) | percent effect (mortality or growth inhibition) at 200 ppm (Euschistus heros) | mortality at 200 ppm (Thrips tabaci; [3]) | mortality at 200 ppm (Plutella xylostella; [4]) | percent control (mortality, anti-feedant effect or growth inhibition) at 200 ppm (Spodoptera littoralis)

Cn1nc(OC(F)(F)C(F)C(F)(F)F)c(C(F)(F)F)c1-n1cc(-c2ccc(Cl)c(C(=O)NCC#N)c2)cn1 (stereo not shown) [compound 10]
≥ 80%: mortality at 200 ppm (Diabrotica balteata; [1]) | mortality at 12 ppm (Myzus persicae; [5]) | mortality at 200 ppm (Tetranychus urticae; [2]) | mortality at 200 ppm (Thrips tabaci; [3]) | mortality at 200 ppm (Plutella xylostella; [4]) | percent control (mortality, anti-feedant effect or growth inhibition) at 200 ppm (Spodoptera littoralis)

Cn1nc(OC(F)(F)C(F)=C(C(F)(F)F)C(F)(F)F)c(C(F)(F)F)c1-n1cc(-c2ccc(Cl)c(C(=O)NC3(C#N)CC3)c2)cn1 [compound 14]
≥ 80%: mortality at 200 ppm (Tetranychus urticae; [2])

Cn1nc(OS(=O)(=O)C(F)(F)F)c(C(F)(F)F)c1-n1cc(-c2ccc(Cl)c(C(=O)NC3(C#N)CC3)c2)cn1 [compound 16]
≥ 80%: mortality at 200 ppm (Diabrotica balteata; [1]) | mortality at 200 ppm (Tetranychus urticae; [2]) | percent effect (mortality or growth inhibition) at 200 ppm (Euschistus heros) | mortality at 200 ppm (Thrips tabaci; [3]) | mortality at 200 ppm (Plutella xylostella; [4]) | percent control (mortality, anti-feedant effect or growth inhibition) at 200 ppm (Spodoptera littoralis)

Cn1nc(OCCCCC(F)=C(F)F)c(C(F)(F)F)c1-n1cc(-c2ccc(Cl)c(C(=O)NC3(C#N)CC3)c2)cn1 [compound 21]
≥ 80%: mortality at 200 ppm (Tetranychus urticae; [2]) | percent effect (mortality or growth inhibition) at 200 ppm (Euschistus heros)

Cn1nc(OCC(F)(F)C(F)(F)C(F)(F)C(F)(F)C(F)(F)C(F)(F)C(F)(F)F)c(C(F)(F)F)c1-n1cc(-c2ccc(Cl)c(C(=O)NC3(C#N)CC3)c2)cn1 [compound 22]
≥ 80%: mortality at 200 ppm (Diabrotica balteata) | mortality at 200 ppm (Plutella xylostella) | mortality at 200 ppm (Spodoptera littoralis)

Cn1nc(OCCOC(F)(F)F)c(C(F)(F)F)c1-n1cc(-c2ccc(Cl)c(C(=O)NC3(C#N)CC3)c2)cn1 [compound 28]
≥ 80%: mortality at 12 ppm (Myzus persicae; [5]) | percent effect (mortality or growth inhibition) at 200 ppm (Euschistus heros)

Cn1nc(OCCCCC(F)=C(F)F)c(C(F)(F)F)c1-n1cc(-c2ccc(Cl)c(C(=O)NC3CC3)c2)cn1 [compound 29]
≥ 80%: mortality at 200 ppm (Diabrotica balteata; [1])

Cn1nc(OCC(F)(F)C(F)(F)C(F)(F)C(F)(F)C(F)(F)C(F)(F)C(F)(F)F)c(C(F)(F)F)c1-n1cc(-c2ccc(Cl)c(C(=O)NC3CC3)c2)cn1 [compound 31]
≥ 80%: mortality at 200 ppm (Plutella xylostella)

Cn1nc(OS(=O)(=O)C(F)(F)C(F)(F)C(F)(F)C(F)(F)F)c(C(F)(F)F)c1-n1cc(-c2ccc(Cl)c(C(=O)NC3(C#N)CC3)c2)cn1 [compound 36]
≥ 80%: mortality at 200 ppm (Diabrotica balteata) | mortality at 12 ppm (Myzus persicae) | percent control (mortality or growth inhibition) at 200 ppm (Euschistus heros) | mortality at 200 ppm (Thrips tabaci) | mortality at 200 ppm (Plutella xylostella)

Cn1nc(OS(=O)(=O)C(F)(F)C(F)(F)C(F)(F)C(F)(F)F)c(C(F)(F)F)c1-n1cc(-c2ccc(Cl)c(C(=O)NC3CC3)c2)cn1 [compound 37]
≥ 80%: mortality at 200 ppm (Diabrotica balteata) | mortality at 12 ppm (Myzus persicae) | percent control (mortality or growth inhibition) at 200 ppm (Euschistus heros) | mortality at 200 ppm (Thrips tabaci) | mortality at 200 ppm (Plutella xylostella)

Cn1nc(OC(F)(F)C(F)(F)C(F)(F)C(F)(F)C(F)(F)C(F)(F)F)c(C(F)(F)F)c1-n1cc(-c2ccc(Cl)c(C(=O)NC3(C#N)CC3)c2)cn1 [compound 38]
≥ 80%: mortality at 200 ppm (Diabrotica balteata) | percent control (mortality or growth inhibition) at 200 ppm (Euschistus heros) | mortality at 200 ppm (Thrips tabaci) | mortality at 200 ppm (Plutella xylostella) | mortality at 200 ppm (Spodoptera littoralis)

Cn1nc(OC(F)(F)C(F)(F)C(F)(F)C(F)(F)C(F)(F)C(F)(F)F)c(C(F)(F)F)c1-n1cc(-c2ccc(Cl)c(C(=O)NC3CC3)c2)cn1 [compound 39]
≥ 80%: mortality at 200 ppm (Diabrotica balteata) | mortality at 200 ppm (Tetranychus urticae) | percent control (mortality or growth inhibition) at 200 ppm (Euschistus heros) | mortality at 200 ppm (Thrips tabaci) | mortality at 200 ppm (Plutella xylostella) | mortality at 200 ppm (Spodoptera littoralis)

Cn1nc(O/C(=C(/F)C(F)(F)F)C(F)(F)F)c(C(F)(F)F)c1-n1cc(-c2ccc(Cl)c(C(=O)NC3(C#N)CC3)c2)cn1 [compound 42]
≥ 80%: mortality at 200 ppm (Diabrotica balteata; [1]) | percent effect (mortality or growth inhibition) at 200 ppm (Euschistus heros) | mortality at 200 ppm (Plutella xylostella; [4]) | percent control (mortality, anti-feedant effect or growth inhibition) at 200 ppm (Spodoptera littoralis)

Cn1nc(OCCC(F)=C(F)F)c(C(F)(F)F)c1-n1cc(-c2ccc(Cl)c(C(=O)NC3(C#N)CC3)c2)cn1 [compound 46]
≥ 80%: mortality at 200 ppm (Thrips tabaci; [3]) | mortality at 200 ppm (Plutella xylostella; [4]) | percent control (mortality, anti-feedant effect or growth inhibition) at 200 ppm (Spodoptera littoralis)

Cn1nc(O/C(=C\F)C(F)(F)F)c(C(F)(F)F)c1-n1cc(-c2ccc(Cl)c(C(=O)NC3(C#N)CC3)c2)cn1 [compound 49]
≥ 80%: mortality at 12 ppm (Myzus persicae; [5]) | mortality at 200 ppm (Tetranychus urticae; [2]) | percent effect (mortality or growth inhibition) at 200 ppm (Euschistus heros) | percent control (mortality, anti-feedant effect or growth inhibition) at 200 ppm (Spodoptera littoralis)

Cn1nc(OC(F)=C(F)C(F)(F)F)c(C(F)(F)F)c1-n1cc(-c2ccc(Cl)c(C(=O)NC3(C#N)CC3)c2)cn1 [compound 52]
≥ 80%: mortality at 12 ppm (Myzus persicae; [5]) | mortality at 200 ppm (Tetranychus urticae; [2]) | percent effect (mortality or growth inhibition) at 200 ppm (Euschistus heros) | mortality at 200 ppm (Thrips tabaci; [3])

Cn1nc(SCCC(F)(F)C(F)(F)C(F)(F)C(F)(F)C(F)(F)C(F)(F)F)c(Br)c1-n1cc(-c2ccc(Cl)c(C(=O)NC3CC3)c2)cn1 [compound 54]
≥ 80%: mortality at 200 ppm (Plutella xylostella) | mortality at 200 ppm (Spodoptera littoralis)

COc1nn(C)c(-n2cc(-c3ccc(Cl)c(C(=O)N(C)C4(C#N)CC4)c3)cn2)c1C(F)(F)F [compound 56]
≥ 80%: mortality at 200 ppm (Diabrotica balteata; [1]) | mortality at 12 ppm (Myzus persicae; [5]) | mortality at 200 ppm (Plutella xylostella; [4])

Cn1nc(SCC(F)(F)C(F)F)c(Br)c1-n1cc(-c2ccc(Cl)c(C(=O)NC3CC3)c2)cn1 [compound 57]
≥ 80%: percent control (mortality, anti-feedant effect or growth inhibition) at 200 ppm (Spodoptera littoralis)

Cn1nc(OC(Cl)(Cl)C(Cl)=C(Cl)Cl)c(C(F)(F)F)c1-n1cc(-c2ccc(Cl)c(C(=O)NC3CC3)c2)cn1 [compound 67]
≥ 80%: mortality at 200 ppm (Diabrotica balteata; [1]) | mortality at 200 ppm (Thrips tabaci; [3])

Cn1nc(OC(F)(F)C(F)C(F)(F)F)c(C(F)(F)F)c1-n1cc(-c2cccc(C(=O)NC3CC3)c2F)cn1 (stereo not shown) [compound 68]
≥ 80%: mortality at 200 ppm (Diabrotica balteata; [1]) | mortality at 200 ppm (Tetranychus urticae; [2]) | mortality at 200 ppm (Thrips tabaci; [3]) | percent control (mortality, anti-feedant effect or growth inhibition) at 200 ppm (Spodoptera littoralis)
